Entries after “also recorded” stand apart in the source; their conditions may differ.

One test deals with HDAC1 (Homo sapiens, UniProt Q13547). Kind of test: HTRF enzyme inhibition assay, HDAC1.
Test [1] has as its system MCF-7 cells. In words: TUNEL staining apoptosis assay. It is filed as cell-based, human. As to conditions: MCF-7, 0.5 μM, 24 h, compared with SAHA and Nutlin-3. The method, then: (§1) It was reported that the inactivation of HDAC and/or MDM2 could increase the percentage of apoptosis cells ([85]–[87]). Therefore, three methods were applied to assess the effect of MDM2-HDAC dual inhibitor 11b on the apoptosis of MCF-7 cells. […] Subsequently, the annexin V-FITC/propidium iodide (PI) double staining method was carried out to quantitatively detect the effect of compound 11b on cell apoptosis (Figure 9B).
TUNEL assay was performed using in situ apoptosis detection kit (Promega, USA), according to the manufacturer’s protocols. […] After 24 h incubation, cells were plated onto the slides, fixed in 4% paraformaldehyde in PBS for 25 min, and then washed with PBS twice. After that, the cells were incubated in TUNEL reaction mixture at 37°C for 60 min. Then nuclei were counterstained with DAPI, and cells were checked under an immunofluorescent confocal microscopy (Olympus FV1000).

A further test has as its system HCT116 cells. In words: MTT antiproliferative assay, HCT116. The settings on record: Homo sapiens, HCT-116, read-out: IC50 HCT116.
Test [2] relates to MCF-7 cells. Kind of test: Annexin V-FITC/PI double staining, flow cytometry. The class given is cell-based, human. The settings on record: MCF-7, 5.0 μM, 24 h. The method, then:
as §1
Cells were collected after incubation, then fixed with 75% ice-cold ethanol and stored at -20°C for 1 h. The cells were then harvested with 0.25% trypsin (without EDTA) and centrifuged at 2000 rpm for 5min. Then, the harvested cells were washed with ice-cold PBS twice and resuspended in 500 μL of 1× binding buffer, which was then added to 5 μL of annexin V-FITC and incubated at room temperature in the dark for 15 min. After adding 10 μL of propidium iodide (PI), the cells were incubated at room temperature in the dark. After another 15 min incubation, the cells were collected and analyzed by flow cytometry.

The test system of a further test is Ac-H4 in MCF-7 cells. Kind of test: Western blot, acetylation of H4. As to conditions: MCF-7, 24 h. It is filed as cell-based, human. The method, then:
The cells were collected and washed with cold PBS twice, then added the protease and phosphatase inhibitors contained lysis buffer. Total cell lysates were prepared in lysis RIPA buffer (Invitrogen, CA, USA) on ice for 30 min, followed by centrifugation at 12000 rpm for 10 min at 4°C. After collecting supernatant, protein concentration was determined by a BCA protein assay. The total proteins were loaded into the 10%-15% SDS-PAGE gel and separated by sodium dodecyl sulfate polyacrylamide gel electrophoresis (PAGE). After electrophoresis, the protein was transferred to the PVDF membranes and rinsed three times in PBST buffer for 10 min each time, then sealed with 5% BSA Buffer for 1h. The membranes were incubated at 4°C for 24 h with primary antibodies and washed with TBST three times. Then incubated at room temperature for 2 h with secondary antibodies (1:10,000). The incubated PVDF membranes were taken out and rinsed with TBST three times. The protein bands were visualized through enhanced chemiluminescence (ECL) WB substrate (Millipore, MA, USA) and analyzed by ChemiScope. The antibodies including p53, MDM2, H4, and GAPDH were purchased from Abcam (Cambridge, MA, USA).

In test [3] the target is T1, GST-tagged MDM2 (Homo sapiens, UniProt Q00987).
T1 construct: purchased Cisbio Co. Ltd
T1 sequence (Q00987 whole entry): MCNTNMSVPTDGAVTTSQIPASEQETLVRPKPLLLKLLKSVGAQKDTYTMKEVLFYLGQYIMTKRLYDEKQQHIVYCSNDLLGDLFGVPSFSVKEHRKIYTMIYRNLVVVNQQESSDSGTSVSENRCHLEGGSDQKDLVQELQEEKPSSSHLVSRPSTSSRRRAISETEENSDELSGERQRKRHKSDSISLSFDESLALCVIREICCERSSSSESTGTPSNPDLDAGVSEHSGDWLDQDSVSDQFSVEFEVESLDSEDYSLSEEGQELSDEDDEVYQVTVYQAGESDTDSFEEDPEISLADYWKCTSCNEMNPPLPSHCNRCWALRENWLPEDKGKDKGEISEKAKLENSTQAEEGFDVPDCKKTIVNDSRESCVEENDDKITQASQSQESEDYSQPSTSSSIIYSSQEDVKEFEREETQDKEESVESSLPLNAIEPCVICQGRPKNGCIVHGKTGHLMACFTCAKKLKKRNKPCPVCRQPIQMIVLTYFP
In words: HTRF enzyme inhibition assay, MDM2. It is filed as biochemical.

In test [4] the target is T1, GST-tagged MDM2. Kind of test: HTRF enzyme inhibition assay, MDM2. It is filed as biochemical. The settings on record: compound at 1 μM. The method, then:
The enzymatic assay of test compounds is using the HTRF-based method provided by Cisbio Co. Ltd. In brief, the target compounds to be tested were prepared into samples with a concentration of 1 μM, which was added to GST-tagged MDM2 and HDAC1 proteins, respectively, then biotinylated substrate p53 peptide and HTRF detection reagents were added. The data obtained were processed by the ratio method, and the inhibition rates of MDM2 and HDAC1 were calculated. The detailed experimental procedures are according to the manufacturer’s protocols.

A further test has as its target T2, HDAC6 (Homo sapiens, UniProt Q9UBN7).
T2 sequence (Q9UBN7 1-1215): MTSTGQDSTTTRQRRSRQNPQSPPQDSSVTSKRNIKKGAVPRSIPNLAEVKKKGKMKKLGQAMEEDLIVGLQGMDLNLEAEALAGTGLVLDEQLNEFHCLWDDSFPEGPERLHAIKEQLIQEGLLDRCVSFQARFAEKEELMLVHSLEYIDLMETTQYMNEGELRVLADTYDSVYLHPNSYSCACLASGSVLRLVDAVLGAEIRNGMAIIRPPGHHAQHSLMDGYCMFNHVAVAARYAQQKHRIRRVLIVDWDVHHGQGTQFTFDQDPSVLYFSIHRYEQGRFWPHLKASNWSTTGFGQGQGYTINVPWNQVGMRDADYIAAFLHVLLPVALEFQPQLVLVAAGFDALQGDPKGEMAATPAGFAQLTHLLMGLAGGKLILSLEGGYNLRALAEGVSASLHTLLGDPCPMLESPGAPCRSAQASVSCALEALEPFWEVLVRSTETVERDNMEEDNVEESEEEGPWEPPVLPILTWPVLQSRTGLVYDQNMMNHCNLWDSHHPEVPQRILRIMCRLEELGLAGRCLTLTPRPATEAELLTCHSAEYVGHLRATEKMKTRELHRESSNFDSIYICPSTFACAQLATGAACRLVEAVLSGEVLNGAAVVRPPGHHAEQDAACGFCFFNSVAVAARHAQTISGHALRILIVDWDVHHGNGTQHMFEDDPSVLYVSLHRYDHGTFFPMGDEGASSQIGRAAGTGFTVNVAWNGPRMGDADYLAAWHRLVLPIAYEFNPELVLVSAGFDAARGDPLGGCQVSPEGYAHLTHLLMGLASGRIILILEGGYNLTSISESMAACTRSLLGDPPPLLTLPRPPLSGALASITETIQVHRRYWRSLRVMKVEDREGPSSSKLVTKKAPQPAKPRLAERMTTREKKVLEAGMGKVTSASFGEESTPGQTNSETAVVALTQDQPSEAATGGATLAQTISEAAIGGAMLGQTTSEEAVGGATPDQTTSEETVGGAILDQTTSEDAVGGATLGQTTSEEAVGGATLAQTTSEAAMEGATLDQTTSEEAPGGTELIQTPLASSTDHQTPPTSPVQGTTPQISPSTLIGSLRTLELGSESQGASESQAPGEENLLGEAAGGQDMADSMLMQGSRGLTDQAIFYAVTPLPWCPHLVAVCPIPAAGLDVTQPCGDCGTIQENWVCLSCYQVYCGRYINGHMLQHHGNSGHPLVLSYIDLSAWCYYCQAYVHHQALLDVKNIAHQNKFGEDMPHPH
In words: HDAC isoform selectivity, HDAC6. It is filed as biochemical. As to conditions: HDAC subtype panel.

Chain of HDAC1 (Q13547 whole entry): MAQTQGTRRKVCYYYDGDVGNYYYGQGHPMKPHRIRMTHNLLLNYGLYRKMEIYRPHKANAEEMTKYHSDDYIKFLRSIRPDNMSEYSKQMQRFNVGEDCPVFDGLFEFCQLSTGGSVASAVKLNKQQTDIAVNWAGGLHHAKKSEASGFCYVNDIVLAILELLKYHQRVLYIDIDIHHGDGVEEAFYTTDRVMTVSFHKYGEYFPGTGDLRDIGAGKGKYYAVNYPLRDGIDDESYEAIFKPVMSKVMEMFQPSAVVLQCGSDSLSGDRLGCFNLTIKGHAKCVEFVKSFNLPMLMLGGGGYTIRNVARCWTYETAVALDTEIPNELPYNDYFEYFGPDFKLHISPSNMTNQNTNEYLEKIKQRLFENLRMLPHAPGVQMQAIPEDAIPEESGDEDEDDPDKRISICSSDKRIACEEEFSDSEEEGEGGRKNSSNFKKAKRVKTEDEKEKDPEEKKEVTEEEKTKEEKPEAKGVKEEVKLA
Experimental for HCT116 cells: The cytotoxicity assay was performed with MTT method as previously described ([73], [88], [89]).

Take `O=C(CCCCCCC(=O)N1CCC(C(=O)Nc2ccc([C@@H]3[C@H]4CSCN4[C@]4(C(=O)Nc5cc(Cl)ccc54)[C@H]3C(=O)c3ccccc3)cc2)CC1)NO` [compound 11b, N-(4-((3R,6'S,7'R,7a'S)-6'-benzoyl-6-chloro-2-oxo-1',6',7',7a'-tetrahydro-3'H-spiro[indoline-3,5'-pyrrolo[1,2-c]thiazol]-7'-yl)phenyl)-1-(8-(hydroxyamino)-8-oxooctanoyl)piperidine-4-carboxamide]: the IC50 on HDAC1 is 0.058 ± 0.005 µM; in the test on HCT116 cells, 2.54 ± 1.07 µM; at GST-tagged MDM2 [3], 0.339 ± 0.068 µM; against HDAC6, 0.12 ± 0.026 µM. Further, the inhibition at 1 µM at HDAC1 (read-out: % enzyme inhibition HDAC) was determined as 79%; against GST-tagged MDM2 [4], 68%. Also, the “apoptotic positive cells by TUNEL staining” value in the test with MCF-7 cells [1] is given as “significantly higher number of apoptotic positive cells”. The molecule also gave an apoptotic cells in the test on MCF-7 cells [2] of 37.36%. For the same molecule, the “acetylation level of H4 (Ac-H4, western blot)” value in the test on Ac-H4 in MCF-7 cells is “up-regulating the expression of p53 and Ac-H4; also recorded: increased the expression of p53 and Ac-H4; also recorded: increased acetylation level of H4”.
